This is an account of results in ChEMBL document CHEMBL1909046, “DrugMatrix in vitro pharmacology data”.

For data set [1], the target named is Mitogen-activated protein kinase 14 (Homo sapiens, UniProt Q16539). Details: species or system Escherichia coli.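 Also: inhibition of p38alpha enzyme activity in a biochemical kinase assay, with myelin basic protein serving as substrate.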
The target in the next data set is Melanocortin receptor 5 (Homo sapiens, UniProt P33032). In kind it is cell membranes, Membrane. The settings on record: hek293.
Chain of Melanocortin receptor 5 (P33032 whole entry): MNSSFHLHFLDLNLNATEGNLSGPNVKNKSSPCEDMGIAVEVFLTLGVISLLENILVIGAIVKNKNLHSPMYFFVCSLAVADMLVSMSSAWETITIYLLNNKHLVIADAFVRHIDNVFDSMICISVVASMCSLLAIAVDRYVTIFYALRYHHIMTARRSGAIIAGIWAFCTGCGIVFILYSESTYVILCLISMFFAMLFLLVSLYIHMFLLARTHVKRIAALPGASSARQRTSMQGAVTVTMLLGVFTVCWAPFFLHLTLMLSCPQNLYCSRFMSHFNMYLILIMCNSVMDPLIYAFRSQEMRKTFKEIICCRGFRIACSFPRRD
The target in data set [2] is T1, Angiotensin-converting enzyme (Oryctolagus cuniculus, UniProt P12822).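 Also: enzymatic inhibition of angiotensin-converting enzyme measured with FAPGG as the substrate.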
T1 sequence (P12822 whole entry): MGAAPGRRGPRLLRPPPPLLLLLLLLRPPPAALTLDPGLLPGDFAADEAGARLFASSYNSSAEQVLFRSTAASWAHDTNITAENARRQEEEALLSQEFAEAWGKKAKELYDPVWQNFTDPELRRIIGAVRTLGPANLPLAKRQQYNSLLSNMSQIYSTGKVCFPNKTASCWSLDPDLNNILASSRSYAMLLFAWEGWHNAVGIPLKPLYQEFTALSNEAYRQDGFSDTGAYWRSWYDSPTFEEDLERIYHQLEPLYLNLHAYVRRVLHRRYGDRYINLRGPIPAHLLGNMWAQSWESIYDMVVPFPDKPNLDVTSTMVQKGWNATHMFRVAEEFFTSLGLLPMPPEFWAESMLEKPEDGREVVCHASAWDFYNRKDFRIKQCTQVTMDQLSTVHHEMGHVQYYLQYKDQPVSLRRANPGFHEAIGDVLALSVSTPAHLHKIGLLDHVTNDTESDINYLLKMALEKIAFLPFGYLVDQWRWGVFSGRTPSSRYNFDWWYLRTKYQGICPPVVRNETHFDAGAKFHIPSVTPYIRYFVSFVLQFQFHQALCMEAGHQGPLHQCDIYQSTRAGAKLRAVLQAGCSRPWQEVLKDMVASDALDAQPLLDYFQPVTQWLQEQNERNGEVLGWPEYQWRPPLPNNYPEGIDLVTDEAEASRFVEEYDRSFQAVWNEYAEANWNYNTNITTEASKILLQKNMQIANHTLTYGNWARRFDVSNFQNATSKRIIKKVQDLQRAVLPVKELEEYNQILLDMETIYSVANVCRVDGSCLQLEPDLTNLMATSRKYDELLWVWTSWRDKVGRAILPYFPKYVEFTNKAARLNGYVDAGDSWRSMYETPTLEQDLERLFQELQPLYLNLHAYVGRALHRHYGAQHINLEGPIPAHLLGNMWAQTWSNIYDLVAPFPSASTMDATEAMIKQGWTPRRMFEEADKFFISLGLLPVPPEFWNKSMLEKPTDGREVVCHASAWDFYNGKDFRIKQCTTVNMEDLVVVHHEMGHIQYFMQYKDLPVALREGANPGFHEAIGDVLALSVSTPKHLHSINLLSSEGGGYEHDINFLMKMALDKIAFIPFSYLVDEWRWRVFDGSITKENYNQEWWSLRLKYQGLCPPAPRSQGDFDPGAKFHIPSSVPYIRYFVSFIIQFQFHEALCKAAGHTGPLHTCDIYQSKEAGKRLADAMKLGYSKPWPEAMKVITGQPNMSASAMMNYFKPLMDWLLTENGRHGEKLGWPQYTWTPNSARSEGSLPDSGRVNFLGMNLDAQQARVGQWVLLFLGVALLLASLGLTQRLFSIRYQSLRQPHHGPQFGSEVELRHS
Format: tissue-based, Lung.

Data set [3] deals with T2, C-X-C chemokine receptor type 2 (Homo sapiens, UniProt P25025).
T2 sequence (P25025 whole entry): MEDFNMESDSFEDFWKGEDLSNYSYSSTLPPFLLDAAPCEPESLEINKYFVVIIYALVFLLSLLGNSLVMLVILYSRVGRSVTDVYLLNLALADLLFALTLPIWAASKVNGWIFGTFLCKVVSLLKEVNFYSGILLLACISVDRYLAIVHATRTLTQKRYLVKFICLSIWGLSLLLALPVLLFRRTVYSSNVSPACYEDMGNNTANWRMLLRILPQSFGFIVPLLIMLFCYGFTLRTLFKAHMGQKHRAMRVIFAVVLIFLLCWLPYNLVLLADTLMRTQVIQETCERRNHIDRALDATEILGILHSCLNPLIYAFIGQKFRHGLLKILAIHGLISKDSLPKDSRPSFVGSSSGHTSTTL
Format: cell membranes, Membrane. The settings on record: cho-k1.

A further data set concerns the target T3, Cytochrome P450 2A6 (Homo sapiens, UniProt P11509).
T3 sequence (P11509 whole entry): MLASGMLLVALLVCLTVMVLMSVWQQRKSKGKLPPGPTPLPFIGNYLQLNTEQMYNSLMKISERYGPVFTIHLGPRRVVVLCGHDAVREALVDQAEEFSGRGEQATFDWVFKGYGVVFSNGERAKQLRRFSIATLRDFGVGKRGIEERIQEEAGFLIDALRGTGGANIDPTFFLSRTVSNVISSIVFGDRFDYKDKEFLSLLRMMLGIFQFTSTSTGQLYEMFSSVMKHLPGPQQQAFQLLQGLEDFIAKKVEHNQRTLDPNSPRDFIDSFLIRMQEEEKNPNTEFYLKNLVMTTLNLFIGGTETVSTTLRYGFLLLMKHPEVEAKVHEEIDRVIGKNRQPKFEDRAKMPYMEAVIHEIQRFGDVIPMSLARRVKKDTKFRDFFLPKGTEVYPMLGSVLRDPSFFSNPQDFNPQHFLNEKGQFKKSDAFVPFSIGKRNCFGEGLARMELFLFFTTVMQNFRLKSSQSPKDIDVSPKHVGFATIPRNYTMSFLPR
Particulars: bti-tn-5b1-4.

The target in the next data set is T4, Interstitial collagenase (Homo sapiens, UniProt P03956).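 Also: MMP-1 enzyme inhibition assay using a peptide substrate.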
T4 sequence (P03956 whole entry): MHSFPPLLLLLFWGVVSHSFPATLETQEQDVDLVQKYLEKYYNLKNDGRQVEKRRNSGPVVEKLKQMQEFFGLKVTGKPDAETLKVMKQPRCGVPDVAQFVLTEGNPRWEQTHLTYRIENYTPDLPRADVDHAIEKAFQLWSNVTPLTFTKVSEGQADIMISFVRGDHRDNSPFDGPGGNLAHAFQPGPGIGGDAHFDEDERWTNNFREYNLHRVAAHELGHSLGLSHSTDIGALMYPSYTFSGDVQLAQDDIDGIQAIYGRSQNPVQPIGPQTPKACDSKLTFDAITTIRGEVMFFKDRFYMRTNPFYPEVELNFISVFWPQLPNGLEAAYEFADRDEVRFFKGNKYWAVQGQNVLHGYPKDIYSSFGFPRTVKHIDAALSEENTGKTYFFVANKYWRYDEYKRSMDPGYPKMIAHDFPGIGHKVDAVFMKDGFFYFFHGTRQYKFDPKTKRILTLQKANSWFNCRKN
Nature of the data set: biochemical. In kind it is tissue-based, Rheumatoid synovial fibroblasts.

In data set [4] the target is Tyrosine-protein kinase Fyn (Homo sapiens, UniProt P06241). Put plainly: biochemical. In kind it is cell-based, Insect cells.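 Also: enzymatic inhibition of Fyn kinase activity measured with Poly(Glu:Tyr) as the phosphorylation substrate.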
Chain of Tyrosine-protein kinase Fyn (P06241 whole entry): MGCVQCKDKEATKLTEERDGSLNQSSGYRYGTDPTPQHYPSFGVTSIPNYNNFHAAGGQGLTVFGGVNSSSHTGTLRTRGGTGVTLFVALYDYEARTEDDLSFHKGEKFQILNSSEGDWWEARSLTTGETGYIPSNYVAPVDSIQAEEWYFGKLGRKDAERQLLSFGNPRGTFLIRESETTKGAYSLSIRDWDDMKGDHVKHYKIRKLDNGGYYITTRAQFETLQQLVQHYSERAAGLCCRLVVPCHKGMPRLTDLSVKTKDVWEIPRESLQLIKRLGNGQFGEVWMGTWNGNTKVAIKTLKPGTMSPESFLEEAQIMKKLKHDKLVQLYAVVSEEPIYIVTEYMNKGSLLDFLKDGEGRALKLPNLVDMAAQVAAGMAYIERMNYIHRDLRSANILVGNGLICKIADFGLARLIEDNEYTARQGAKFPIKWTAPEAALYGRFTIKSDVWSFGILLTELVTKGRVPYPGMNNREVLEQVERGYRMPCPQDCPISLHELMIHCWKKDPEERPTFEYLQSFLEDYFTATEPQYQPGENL
Also: in other assays of this panel Not Active means under 50% inhibition at 10 µM.

Chain of Mitogen-activated protein kinase 14 (Q16539 whole entry): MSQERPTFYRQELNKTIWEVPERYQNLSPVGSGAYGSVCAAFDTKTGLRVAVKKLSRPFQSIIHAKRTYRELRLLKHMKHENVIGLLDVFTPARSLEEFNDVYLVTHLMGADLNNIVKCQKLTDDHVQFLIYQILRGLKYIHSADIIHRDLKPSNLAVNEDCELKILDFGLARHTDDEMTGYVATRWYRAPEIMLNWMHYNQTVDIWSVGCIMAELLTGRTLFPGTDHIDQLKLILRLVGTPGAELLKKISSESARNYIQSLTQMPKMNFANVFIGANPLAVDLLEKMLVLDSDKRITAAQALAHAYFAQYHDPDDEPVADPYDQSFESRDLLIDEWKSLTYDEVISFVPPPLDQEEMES

Broadly, the IC50 is the concentration at which inhibition is half-maximal. On to `C[N+](C)(C)CCO.[Cl-]` [CHOLINE CHLORIDE], for which the IC50 entry (in data set [1]; against Melanocortin receptor 5; in data set [2]; in data set [3]; at Cytochrome P450 2A6; against Interstitial collagenase) was “Not Active” each time. In addition, in data set [4] (insect cells), the IC50 entry is given as “Not Active”. For the same compound, the Ki entry on Cytochrome P450 2A6 is “Not Active”.
With `CCOC(=O)C(C)(C)Oc1ccc(Cl)cc1` [CLOFIBRATE], the IC50 result (in data set [1]; on Melanocortin receptor 5; in data set [2]; in data set [3]; against Cytochrome P450 2A6; at Interstitial collagenase) was “Not Active” throughout. In addition, in data set [4] (insect cells), the IC50 entry is on record as “Not Active”. Besides, the Ki result on Cytochrome P450 2A6 is given as “Not Active”.
For the compound `CC(=O)OCC(=O)[C@@]1(O)CC[C@H]2[C@@H]3CCC4=CC(=O)CC[C@]4(C)[C@H]3C(=O)C[C@@]21C` [CORTISONE ACETATE], the 50% inhibitory concentration (IC50) result (in data set [1]; on Melanocortin receptor 5; in data set [2]; in data set [3]; on Cytochrome P450 2A6; against Interstitial collagenase) was “Not Active” throughout. Besides, the IC50 entry in data set [4] (insect cells) was “Not Active”. Moreover, at Cytochrome P450 2A6, the Ki entry is recorded as “Not Active”.
Regarding `O=c1ccc2ccccc2o1` [COUMARIN], the 50% inhibitory concentration (IC50) result (in data set [1]; on Melanocortin receptor 5; in data set [2]; in data set [3]; against Cytochrome P450 2A6; against Interstitial collagenase) was “Not Active” in each case. Further, the IC50 entry in data set [4] (insect cells) is on record as “Not Active”. Also, at Cytochrome P450 2A6, the Ki result was “Not Active”.
Take `CN(C)/N=N/c1[nH]cnc1C(N)=O` [DACARBAZINE]: the IC50 entry (in data set [1]; against Melanocortin receptor 5; in data set [2]; in data set [3]; against Cytochrome P450 2A6; at Interstitial collagenase) was “Not Active” throughout. For the same compound, the IC50 result in data set [4] (insect cells) is listed as “Not Active”. Moreover, the Ki result at Cytochrome P450 2A6 was “Not Active”.
Consider `COc1ccc2c(c1)[C@]13CCCC[C@@H]1[C@H](C2)N(C)CC3` [DEXTROMETHORPHAN], for which the IC50 result (in data set [1]; against Melanocortin receptor 5; in data set [2]; in data set [3]; against Cytochrome P450 2A6; on Interstitial collagenase) was “Not Active” each time. The IC50 result in data set [4] (insect cells) is on record as “Not Active”. Besides, on Cytochrome P450 2A6, the Ki result was “Not Active”.
On to `CC(=O)Nc1c(I)c(NC(C)=O)c(I)c(C(=O)O)c1I` [DIATRIZOIC ACID], for which the IC50 entry (in data set [1]; against Melanocortin receptor 5; in data set [2]; in data set [3]; at Cytochrome P450 2A6; at Interstitial collagenase) was “Not Active” each time. For the same compound, in data set [4] (insect cells), the IC50 entry was “Not Active”. In addition, the Ki entry on Cytochrome P450 2A6 is given as “Not Active”.
On to `COP(=O)(OC)OC=C(Cl)Cl` [DICHLORVOS], for which the IC50 entry (in data set [1]; on Melanocortin receptor 5; in data set [2]; in data set [3]; at Cytochrome P450 2A6; at Interstitial collagenase) was “Not Active” in each case. Also, in data set [4] (insect cells), the IC50 entry is listed as “Not Active”. The Ki result on Cytochrome P450 2A6 was “Not Active”.
For the compound `O=C(O)Cc1ccccc1Nc1c(Cl)cccc1Cl` [DICLOFENAC], the IC50 entry (in data set [1]; against Melanocortin receptor 5; in data set [2]; in data set [3]; on Cytochrome P450 2A6; against Interstitial collagenase) was “Not Active” each time. Further, the IC50 entry in data set [4] (insect cells) was “Not Active”. On Cytochrome P450 2A6, the Ki result is reported as “Not Active”.
Regarding `C[C@H]1O[C@@H](O[C@H]2[C@@H](O)C[C@H](O[C@H]3[C@@H](O)C[C@H](O[C@H]4CC[C@@]5(C)[C@H](CC[C@@H]6[C@@H]5CC[C@]5(C)[C@@H](C7=CC(=O)OC7)CC[C@]65O)C4)O[C@@H]3C)O[C@@H]2C)C[C@H](O)[C@@H]1O` [DIGITOXIN], the IC50 entry (in data set [1]; against Melanocortin receptor 5; in data set [2]; in data set [3]; at Cytochrome P450 2A6; on Interstitial collagenase) was “Not Active” throughout. Moreover, the IC50 entry in data set [4] (insect cells) was “Not Active”. Further, the Ki entry at Cytochrome P450 2A6 is “Not Active”.
Regarding `CCN1CC(CCN2CCOCC2)C(c2ccccc2)(c2ccccc2)C1=O` (configuration not stated) [DOXAPRAM], the IC50 entry (in data set [1]; at Melanocortin receptor 5; in data set [2]; in data set [3]; at Cytochrome P450 2A6; against Interstitial collagenase) was “Not Active” in each case. Also, the IC50 result in data set [4] (insect cells) is “Not Active”. On Cytochrome P450 2A6, the Ki result is recorded as “Not Active”.
`Cn1c(=O)c2c(ncn2CC2OCCO2)n(C)c1=O` [DOXOFYLLINE]: the IC50 result (in data set [1]; on Melanocortin receptor 5; in data set [2]; in data set [3]; against Cytochrome P450 2A6; against Interstitial collagenase) was “Not Active” in each case. Moreover, the IC50 entry in data set [4] (insect cells) was “Not Active”. On Cytochrome P450 2A6, the Ki entry is given as “Not Active”.
For the compound `COc1cccc2c1C(=O)c1c(O)c3c(c(O)c1C2=O)C[C@@](O)(C(=O)CO)C[C@@H]3O[C@H]1C[C@H](N)[C@H](O)[C@H](C)O1` [DOXORUBICIN], the IC50 entry (in data set [1]; against Melanocortin receptor 5; in data set [2]; in data set [3]; on Cytochrome P450 2A6; on Interstitial collagenase) was “Not Active” in each case. Also, the midpoint of inhibition in data set [4], the IC50, lay at 5.15 µM. Also, the Ki entry at Cytochrome P450 2A6 is recorded as “Not Active”.
In the case of `COc1cccc2c1C(=O)c1c(O)c3c(c(O)c1C2=O)C[C@@](O)(C(=O)CO)C[C@@H]3O[C@H]1C[C@H](N)[C@@H](O)[C@H](C)O1` [EPIRUBICIN], the IC50 result (in data set [1]; against Melanocortin receptor 5; in data set [2]; in data set [3]; against Cytochrome P450 2A6; at Interstitial collagenase) was “Not Active” in each case. Moreover, the IC50 in data set [4] (read-out: IC50) was 5.18 µM. Moreover, the Ki entry at Cytochrome P450 2A6 is reported as “Not Active”.
